Source: publication PMC2248166, “Quantitative peptide binding motifs for 19 human and mouse MHC class I molecules derived using positional scanning combinatorial peptide libraries” (Immunome Research, 2008)

target: HLA A*3001 (Homo sapiens, UniProt P04439, D140H/D185E/E176W/F33S/G80R/H175R/K168Q/R138E/R41S); experiment: biochemical; format: binding; conditions: not given

| Sequence | Normalized average relative binding affinity (ARB), HLA A*3001 |
| --- | --- |
| XXCXXXXXX [3064.0042] | 0.0048 |
| XXDXXXXXX [3064.0043] | 0.0018 |
| XXEXXXXXX [3064.0044] | 0.0031 |
| XXFXXXXXX [3064.0045] | 0.041 |

target: HLA A*3201 (Homo sapiens, UniProt P04439, A270S/D101S/D185E/E176V/E277Q/F133L/G103R/G107R/G231S/H175R/I121M/I218V/I322F/K168Q/L105A/L300P/L318F/M331R/P208A/P217A/Q94H/R106L/R138Q/S129P/T104I/T323A/T345S/V100E/V321M/V358M); experiment: biochemical; format: binding; conditions: not given

| Sequence | Normalized average relative binding affinity (ARB), HLA A*3201 |
| --- | --- |
| XXCXXXXXX [3064.0042] | 0.32 |
| XXDXXXXXX [3064.0043] | 0.085 |
| XXEXXXXXX [3064.0044] | 0.14 |
| XXFXXXXXX [3064.0045] | 0.98 |

target: HLA A*6802 (Homo sapiens, UniProt P04439, A269V/D140Y/D185E/E176V/E277Q/E87N/F33Y/G231S/I121R/I166T/I218V/L180W/L300P/L318F/N151K/P208A/P217A/Q86R/R138H/R169H/S129P/T345S/V36M); experiment: not given; format: binding; conditions: not given

| Sequence | Normalized average relative binding affinity (ARB), HLA A*6802 |
| --- | --- |
| XXCXXXXXX [3064.0042] | 0.071 |
| XXDXXXXXX [3064.0043] | 0.025 |
| XXEXXXXXX [3064.0044] | 0.046 |
| XXFXXXXXX [3064.0045] | 0.82 |

target: HLA B*0702 (Homo sapiens, UniProt P01889); experiment: not given; format: binding; conditions: positional scanning combinatorial 9-mer library; normalized to 1.0 for the best residue at each position

| Sequence | Normalized average relative binding affinity (ARB), HLA B*0702 |
| --- | --- |
| XXCXXXXXX [3064.0042] | 0.047 |
| XXDXXXXXX [3064.0043] | 0.031 |
| XXEXXXXXX [3064.0044] | 0.052 |
| XXFXXXXXX [3064.0045] | 0.067 |

target: HLA B*0801 (Homo sapiens, UniProt P01889, A93T/A95T/D138N/E176V/E187T/K202T/Q94N/R180D/S35A/V36M/Y33D/Y91F); experiment: biochemical; format: binding; conditions: not given

| Sequence | Normalized average relative binding affinity (ARB), HLA B*0801 |
| --- | --- |
| XXCXXXXXX [3064.0042] | 0.020 |
| XXDXXXXXX [3064.0043] | 0.015 |
| XXEXXXXXX [3064.0044] | 0.034 |
| XXFXXXXXX [3064.0045] | 0.19 |

target: HLA B*1501 (Homo sapiens, UniProt P01889, A329T/A93T/A95T/C349S/D201E/D98Y/E187L/E204Q/E69M/E70A/K202T/N87E/Q94N/R155S/R180W/S121R/S35A/S48A/V306I/V36M/Y140S/Y91S); experiment: biochemical; format: binding; conditions: not given

| Sequence | Normalized average relative binding affinity (ARB), HLA B*1501 |
| --- | --- |
| XXCXXXXXX [3064.0042] | 0.35 |
| XXDXXXXXX [3064.0043] | 0.039 |
| XXEXXXXXX [3064.0044] | 0.040 |
| XXFXXXXXX [3064.0045] | 0.83 |

target: HLA B*1503 (Homo sapiens, UniProt P01889, A329T/A93T/A95T/C349S/D201E/D98Y/E187L/E204Q/K202T/N87E/Q94N/R155S/R180L/S121R/S35A/V306I/V36M/Y140S/Y91S); experiment: biochemical; format: binding; conditions: not given

| Sequence | Normalized average relative binding affinity (ARB), HLA B*1503 |
| --- | --- |
| XXCXXXXXX [3064.0042] | 0.048 |
| XXDXXXXXX [3064.0043] | 0.032 |
| XXEXXXXXX [3064.0044] | 0.044 |
| XXFXXXXXX [3064.0045] | 0.62 |

target: HLA B*2705 (Homo sapiens, UniProt P01889, D138H/D201E/E176V/E204Q/G107R/H137Y/K202T/N104T/N87E/Q56L/Q94K/R106L/R155S/R180L/S101D/S121N/S48T/Y140D/Y33H/Y91C); experiment: not given; format: binding; conditions: positional scanning combinatorial 9-mer library; normalized to 1.0 for the best residue at each position

| Sequence | Normalized average relative binding affinity (ARB), HLA B*2705 |
| --- | --- |
| XXCXXXXXX [3064.0042] | 0.14 |
| XXDXXXXXX [3064.0043] | 0.020 |
| XXEXXXXXX [3064.0044] | 0.071 |
| XXFXXXXXX [3064.0045] | 1.0 |

target: HLA B*3501 (Homo sapiens, UniProt P01889, A329T/A93T/A95T/C349S/D201E/D98Y/E176V/E187L/E204Q/E69T/I218V/K202T/L119I/Q94N/R155S/R180L/S121R/S35A/S48A/T118I/V127L/V306I/V36M/Y140S/Y91F); experiment: not given; format: binding; conditions: not given

| Sequence | Normalized average relative binding affinity (ARB), HLA B*3501 |
| --- | --- |
| XXCXXXXXX [3064.0042] | 0.074 |
| XXDXXXXXX [3064.0043] | 0.11 |
| XXEXXXXXX [3064.0044] | 0.073 |
| XXFXXXXXX [3064.0045] | 0.49 |

target: HLA B*5101 (Homo sapiens, UniProt P01889, A329T/A93T/A95T/C349S/D138N/D201E/D98Y/E187L/E204Q/E69T/G107R/I218V/K202T/L105A/L119W/N104I/Q94N/R106L/R155S/R180L/S101N/S121T/S35A/S48A/V306I/V36M/Y195H/Y91F); experiment: not given; format: binding; conditions: not given

| Sequence | Normalized average relative binding affinity (ARB), HLA B*5101 |
| --- | --- |
| XXCXXXXXX [3064.0042] | 0.24 |
| XXDXXXXXX [3064.0043] | 0.070 |
| XXEXXXXXX [3064.0044] | 0.070 |
| XXFXXXXXX [3064.0045] | 0.65 |

target: HLA B*5301 (Homo sapiens, UniProt P01889, A329T/A93T/A95T/C349S/D201E/D98Y/E176V/E187L/E204Q/E69T/G107R/I218V/K202T/L105A/L119I/N104I/Q94N/R106L/R155S/R180L/S101N/S121R/S35A/S48A/T118I/V127L/V306I/V36M/Y140S/Y91F); experiment: not given; format: binding; conditions: not given

| Sequence | Normalized average relative binding affinity (ARB), HLA B*5301 |
| --- | --- |
| XXCXXXXXX [3064.0042] | 0.0065 |
| XXDXXXXXX [3064.0043] | 0.096 |
| XXEXXXXXX [3064.0044] | 0.031 |
| XXFXXXXXX [3064.0045] | 0.19 |

target: HLA B*5401 (Homo sapiens, UniProt P01889, A329T/C349S/D138N/D201E/E176V/E187T/E204Q/E69G/I76V/K202T/L119W/R155S/R180L/S121T/S35A/S48A/V127L/V306I/V36M/Y140L); experiment: not given; format: binding; conditions: not given

| Sequence | Normalized average relative binding affinity (ARB), HLA B*5401 |
| --- | --- |
| XXCXXXXXX [3064.0042] | 0.015 |
| XXDXXXXXX [3064.0043] | 0.0033 |
| XXEXXXXXX [3064.0044] | 0.0049 |
| XXFXXXXXX [3064.0045] | 0.11 |

target: HLA B*5801 (Homo sapiens, UniProt P01889, A329T/C349S/D201E/D98Y/E176V/E187L/E204Q/E69T/G107R/I218V/I90N/K202T/L105A/L119I/N104I/N87E/Q89R/Q94S/R106L/R155S/R180L/R86G/S101N/S121R/S35A/S48A/T118I/V127L/V306I/V36M/Y140S/Y91M); experiment: not given; format: binding; conditions: not given

| Sequence | Normalized average relative binding affinity (ARB), HLA B*5801 |
| --- | --- |
| XXCXXXXXX [3064.0042] | 0.11 |
| XXDXXXXXX [3064.0043] | 0.11 |
| XXEXXXXXX [3064.0044] | 0.095 |
| XXFXXXXXX [3064.0045] | 0.52 |

target: HLA B*5802 (Homo sapiens, UniProt P01889, A329T/C349S/D201E/D98Y/E176V/E187L/E204Q/E69T/G107R/I218V/I90N/K202T/L105A/N104I/N87E/Q89R/Q94S/R106L/R155S/R180L/R86G/S101N/S121W/S35A/S48A/V127L/V306I/V36M/Y140S/Y91M); experiment: not given; format: binding; conditions: not given

| Sequence | Normalized average relative binding affinity (ARB), HLA B*5802 |
| --- | --- |
| XXCXXXXXX [3064.0042] | 0.37 |
| XXDXXXXXX [3064.0043] | 0.047 |
| XXEXXXXXX [3064.0044] | 0.049 |
| XXFXXXXXX [3064.0045] | 0.41 |

target: H-2 D^b (Mus musculus, UniProt P01899); experiment: not given; format: binding; conditions: not given
Sequence (P01887 21-119): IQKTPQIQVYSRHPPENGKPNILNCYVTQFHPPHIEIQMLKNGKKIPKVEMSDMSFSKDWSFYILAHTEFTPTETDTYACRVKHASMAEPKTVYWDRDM
Sequence (P01899 25-362): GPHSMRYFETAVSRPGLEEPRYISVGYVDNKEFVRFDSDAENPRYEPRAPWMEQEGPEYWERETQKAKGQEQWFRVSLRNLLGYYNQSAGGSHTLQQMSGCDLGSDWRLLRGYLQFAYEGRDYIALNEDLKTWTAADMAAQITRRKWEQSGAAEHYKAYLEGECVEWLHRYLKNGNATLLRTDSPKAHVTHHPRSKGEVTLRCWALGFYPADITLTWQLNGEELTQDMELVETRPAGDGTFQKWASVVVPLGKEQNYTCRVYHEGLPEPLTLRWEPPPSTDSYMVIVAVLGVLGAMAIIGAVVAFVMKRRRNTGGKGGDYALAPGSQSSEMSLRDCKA

| Sequence | Normalized average relative binding affinity (ARB), H-2 Db |
| --- | --- |
| XXCXXXXXX [3064.0042] | 0.098 |
| XXDXXXXXX [3064.0043] | 0.022 |
| XXEXXXXXX [3064.0044] | 0.032 |
| XXFXXXXXX [3064.0045] | 0.099 |

target: H-2 D^d (Mus musculus, UniProt P01900); experiment: not given; format: binding; conditions: not given
Sequence (P01900 whole entry, looked up): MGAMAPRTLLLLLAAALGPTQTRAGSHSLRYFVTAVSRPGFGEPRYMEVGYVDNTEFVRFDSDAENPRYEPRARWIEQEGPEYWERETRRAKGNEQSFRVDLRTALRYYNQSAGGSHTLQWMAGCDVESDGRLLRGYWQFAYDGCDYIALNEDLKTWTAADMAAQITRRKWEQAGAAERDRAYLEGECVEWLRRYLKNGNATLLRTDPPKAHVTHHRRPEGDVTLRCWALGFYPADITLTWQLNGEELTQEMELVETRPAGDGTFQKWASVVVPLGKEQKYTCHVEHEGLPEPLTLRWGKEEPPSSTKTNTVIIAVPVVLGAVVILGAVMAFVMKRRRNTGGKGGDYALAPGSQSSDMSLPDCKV

| Sequence | Normalized average relative binding affinity (ARB), H-2 Dd |
| --- | --- |
| XXCXXXXXX [3064.0042] | 0.0028 |
| XXDXXXXXX [3064.0043] | 0.012 |
| XXEXXXXXX [3064.0044] | 0.0030 |
| XXFXXXXXX [3064.0045] | 0.0072 |

target: H-2 K^k (Mus musculus, UniProt P04223); experiment: not given; format: binding; conditions: not given
Sequence (P01887 21-119): as the sequence (P01887 21-119) above
Sequence (P04223 22-369): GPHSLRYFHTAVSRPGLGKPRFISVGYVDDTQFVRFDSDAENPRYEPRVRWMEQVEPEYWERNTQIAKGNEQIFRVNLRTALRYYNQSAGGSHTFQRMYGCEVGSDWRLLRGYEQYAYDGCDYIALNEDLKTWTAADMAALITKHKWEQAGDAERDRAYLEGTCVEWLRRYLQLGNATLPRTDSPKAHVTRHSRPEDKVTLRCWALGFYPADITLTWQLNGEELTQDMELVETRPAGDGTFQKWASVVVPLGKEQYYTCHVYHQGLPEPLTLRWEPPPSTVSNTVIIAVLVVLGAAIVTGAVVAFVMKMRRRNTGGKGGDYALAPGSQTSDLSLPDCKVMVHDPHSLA

| Sequence | Normalized average relative binding affinity (ARB), H-2 Kk |
| --- | --- |
| XXCXXXXXX [3064.0042] | 0.15 |
| XXDXXXXXX [3064.0043] | 0.059 |
| XXEXXXXXX [3064.0044] | 0.27 |
| XXFXXXXXX [3064.0045] | 0.39 |

target: HLA A*0201 (Homo sapiens, UniProt P04439, D140Y/D185E/D98H/E176V/E277Q/G131W/G231S/I119V/I121R/I166T/I218V/L300P/L318F/N151K/N90K/P208A/P217A/Q86G/Q94H/R138H/R169H/T345S); experiment: not given; conditions: positional scanning combinatorial 9-mer library; normalized to 1.0 for the best residue at each position

| Sequence | Normalized average relative binding affinity (ARB), HLA A*0201 |
| --- | --- |
| XXCXXXXXX [3064.0042] | 0.22 |
| XXDXXXXXX [3064.0043] | 0.46 |
| XXEXXXXXX [3064.0044] | 0.037 |
| XXFXXXXXX [3064.0045] | 0.63 |
